Laboratory results: paper PMC12679539, “Synthesis and evaluation of nitroheterocyclic aromatic adamantane amides with trypanocidal activity. Part II” (RSC Medicinal Chemistry, 2025)
Where two headings read alike, the source gives them in different places.

How the values were obtained:
T. cruzi epimastigotes [1] = conditions: read-out: T. cruzi (epimastigotes) IC50; cited from earlier work
[2] = test system: bloodstream-form Trypanosoma brucei; test: Activity against bloodstream-form Trypanosoma brucei (Alamar Blue growth inhibition); type: cell-based, Trypanosoma brucei (strain 427); conditions: for S.I. (selectivity index): ratio of IC50 values obtained with L6 cells and T. brucei
Method: (§1) Bloodstream form T. brucei (strain 427) were cultured at 37 °C in modified Iscove's medium. Trypanocidal activity was assessed by growing parasites in microtiter plates in the presence of various drug concentrations. […] The plates were incubated for 48 hours at 37 °C and 20 μL Alamar Blue was then added to each well. After an additional overnight incubation, the fluorescence was determined using a Gemini fluorescent plate reader (Molecular Devices). Inhibition of growth was calculated by comparison with control values and IC50 and IC90 values were determined in triplicate using linear regression analysis.

[3] = test system: bloodstream-form Trypanosoma brucei; conditions: read-out: T. brucei IC50; cited from earlier work
T. cruzi epimastigotes [4] = test: Activity against Trypanosoma cruzi epimastigotes (Alamar Blue growth inhibition); type: cell-based, Trypanosoma cruzi (strain CL Brener); conditions: CL Brener
Method: as §1, with “Trypanocidal” for “Bloodstream form T. brucei (strain 427) were cultured at 37 °C in modified Iscove's medium. Trypanocidal”, “4 days” for “48 hours”, “28” for “37”, “Blue (Biosource UK Ltd)” for “Blue”, “3 days” for “overnight”

[5] = test system: L. infantum intracellular amastigotes; test: Activity against intracellular L. infantum amastigotes in THP-1 derived macrophages (luciferase); type: cell-based, Leishmania infantum (MHOM/MA/67/ITMAP-263); conditions: for inhibition at 10 µM / IC50: Leishmania infantum; for inhibition at 10 µM: read-out: L. infantum (intracellular amastigotes) % of growth inhibition at 10 μM ± ST DEV; for IC50: read-out: L. infantum (intracellular amastigotes) IC50 (μM), 95% CI
Method: Leishmania infantum Luciferase-expressing L. infantum (strain MHOM/MA/67/ITMAP-263) axenic amastigotes were cultured in MAA/20 medium at 37 °C with 5% CO2, as described by Sereno et al. 1998.[26] The parasites were maintained in 5 mL T25 ventilated flasks and subcultured every seven days at a concentration of 1 × 10^6 cells per mL.
The activity against intracellular amastigotes of L. infantum was evaluated using a modified method described by Santarem, Tavares, and Cordeiro-da-Silva (2019).[27] THP-1 cells were differentiated into macrophages using PMA, as previously outlined. The differentiated macrophages were then infected with L. infantum axenic amastigotes expressing episomal luciferase at a macrophage-to-amastigote ratio of 1 : 10 for four hours at 37 °C in a 5% CO2 atmosphere. After this incubation, non-internalized parasites were washed away, and various concentrations of test compounds were added in a final volume of 100 μL. A dose–response curve for miltefosine was included in all assays to serve as a quality control. Each experimental condition was tested in quadruplicate. After 72 hours of incubation, the medium was replaced with 100 μL of PBS, and 25 μL of Glo-lysis buffer from the Steady-Glo Luciferase Assay System (Promega, Madison, WI, USA) was added. The plates were then agitated at 100 rpm for 10 minutes at room temperature. Following this, 30 μL of the Steady-Glo reagent (Promega, Madison, WI, USA) was added, and the mixture was incubated for 15 minutes in the dark under the same conditions. A total of 140 μL from each well was transferred to white-bottom 96-well plates, and luminescence intensity was measured using a Synergy 2 Multi-Mode Reader (Biotek, Winooski, VT, USA). The antileishmanial effect was assessed by comparing the results with those from non-treated infected cells. The IC50 value were determined through non-linear regression analysis using GraphPad Prism version 8.1.1 for Windows (GraphPad Software, San Diego, CA, USA). Results represent the average of at least three independent experiments.

L6 cells [6] = test: Cytotoxic activity against rat skeletal myoblast L6 cells (Alamar Blue); type: cell-based; conditions: 120 h, cytotoxicity, 5 days
Method: The cytotoxicity against mammalian cells was assessed using microtitre plates. Briefly, L6 cells (a rat skeletal muscle line) were seeded at 1 × 10^4 mL^−1 in 200 μL of RPMI-1640 growth medium (with 10% fetal calf serum) containing 7 different compound concentrations in a range previously established to encompass both the IC50 and IC90 values. The plates were incubated for 5 days at 37 °C and 20 μL Alamar Blue (Biosource Ltd, Wilton, North Yorkshire England.) was then added to each well. After an additional 8 hours incubation, the fluorescence was determined using a Gemini fluorescent plate reader (Molecular Devices). Inhibition of growth was calculated by comparison with control values and IC50 and IC90 values were determined in triplicate using linear regression analysis.

[7] = Cytotoxicity on THP-1-derived macrophages (MTT assay); type: cell-based; conditions: human, THP-1-derived macrophages (PMA-differentiated), value or interval
Method: The THP-1 cell line, a human leukemia line (ATCC® TIB-202™), was cultured in RPMI-1640 medium supplemented with 10% heat-inactivated fetal bovine serum (FBS), 2 mM. L-Glutamine, 100 IU mL^−1 penicillin/streptomycin, and 20 mM HEPES. The cells were maintained in a humidified incubator at 37 °C with 5% CO2. Subculturing was performed every three days, using 20 mL of media at a concentration of 2 × 10^5 cells per mL in a T75 flask. All cell culture reagents were purchased from Lonza Bioscience (Morrisville, NC).
The cytotoxicity of the compounds on THP-1-derived macrophages was evaluated using the colorimetric MTT assay (3-(4,5-dimethylthiazol-2-yl)-2,5-diphenyltetrazolium bromide), as described in Magoulas et al. (2021).[28] THP-1 cells were suspended in complete RPMI medium at a density of 1 × 10^6 cells per mL, and 100 μL of this suspension was seeded into each well of a 96-well plate. The cells were differentiated into macrophages by adding 40 ng mL^−1 of phorbol-myristate 13-acetate (PMA, Sigma, Saint Louis, MI, USA) for 24 hours, followed by replacement with fresh medium for an additional 24 hours. Subsequently, the cells were incubated with 100 μL of various compounds, diluted in complete RPMI medium, at concentrations ranging from 100 to 12.5 μM. Each condition was tested in triplicate. After 72 hours of incubation at 37 °C with 5% CO2, the medium was removed, and 200 μL of a 0.5 mg mL^−1 MTT solution, diluted in RPMI, was added to each well. The plates were incubated for an additional 4 hours. Following this incubation, 160 μL of the medium was removed and replaced with 160 μL of 2-propanol. Absorbance was measured at 570 nm using a Synergy 2 Multi-Mode Reader (Biotek, Winooski, VT, USA). Cytotoxicity was determined by presenting the CC50 (the concentration of the drug that reduces cell viability by 50%) interval or by calculating the CC50 value through non-linear regression analysis using GraphPad Prism version 8.1.1 for Windows (GraphPad Software, San Diego, CA, USA). The results represent the average of at least three independent experiments.

[8] = test system: L. infantum promastigotes; test: Activity against Leishmania infantum promastigotes (resazurin assay); type: cell-based, Leishmania infantum (MHOM/MA/67/ITMAP-263); conditions: for IC50: Leishmania infantum, promastigotes, 72 h, 95% CI in brackets
Method: Promastigotes from the L. infantum strain (MHOM/MA/67/ITMAP-263) were cultivated in 5 ml of Schneider's insect medium, which was supplemented with 10% heat-inactivated fetal bovine serum (FBS), 200 U ml^−1 of penicillin/streptomycin, 6 μg ml^−1 of phenol red, and 5 mM of HEPES. The cultures were maintained in an incubator at 27 °C and diluted to a concentration of 2 × 10^5 cells per ml every 5 days. For the assays the parasites used were equivalent to late/log with two or three days of culture.
The efficacy of the compounds against L. infantum promastigotes was evaluated using a resazurin-based assay. Parasites were added to 100 μl of serial dilutions of the compounds in supplemented complete medium at a cell density of 5 × 10^5 ml^−1. As a quality control, a dose–response curve with the antileishmanial drug miltefosine was included in all assays. The final volume of each assay was 200 μl per well, and each condition was tested in duplicate. After a 72-hour incubation under specific conditions for each parasite, 20 μl of a 0.5 mM resazurin solution was added, and the plates were incubated for an additional 4 hours under the same conditions. Fluorescence was measured at 544 nm for excitation and 590 nm for emission using a Synergy 2 Multi-Mode Reader (Biotek, Winooski, VT, USA). Results were expressed as the percentage of parasite growth inhibition compared to controls (untreated parasites) and represent the average of at least three independent experiments. The effect was evaluated by determining the IC50 value (the concentration required to inhibit 50% growth), calculated using non-linear regression curves via GraphPad Prism version 8.1.1 for Windows (GraphPad Software, San Diego, CA, USA).

L6 cells [9] = test system: L6 cells; parameters: method as in PMID 26479031; conditions: cytotoxicity; cited from earlier work
[10] = test system: T. cruzi intracellular amastigotes; test: microbe, parasite or virus in culture; type: cell-based, Trypanosoma cruzi CL Brener PpyRE9h:mScarlet; conditions: Trypanosoma cruzi, 120 h; in HeLa cells, 5 days
Method: Assays were performed in 96-well black (clear bottom) microtitre plates (Corning Inc.). HeLa ^† cells were seeded at 10^4 per well, incubated for 3 days, and then infected with T. cruzi CL Brener PpyRE9h : mScarlet[25] culture form trypomastigotes (1 : 1 multiplicity of infection). After 16 hours, extracellular parasites were removed by washing in growth medium (×3), test compounds were added, and the plates incubated for 5 days. Fluorescence intensities were then determined using a BMG FLUOstar Omega plate reader (ex 545 nm, em 590 nm), and the data analysed using GraphPad Prism 9.0 software. The values were expressed as IC50/90 ± SD and are the mean of triplicate experiments.

## CC1CS(=O)(=O)CCN1/N=C/c1ccc([N+](=O)[O-])o1 (centres unmarked) [Nfx, nifurtimox]
T. cruzi epimastigotes [1]
  IC50: 3100 ± 500 nM
[2]
  S.I. (selectivity index): 7
[3]
  IC50: 4400 ± 700 nM

## O=C(NCc1ccc(C2C3CC4CC(C3)CC2C4)cc1)c1ccc([N+](=O)[O-])o1 (centres unmarked) [2b, N-[4-(2-Adamantyl)benzyl]-5-nitrofuran-2-carboxamide]
T. cruzi epimastigotes [4]
  IC50: 560 ± 20 nM
  IC90: 1200 ± 20 nM
[5]; THP-1, 72 h
  inhibition at 10 µM: 84.6 ± 15.6%
  IC50: 3.97 µM
L6 cells [6]
  IC50: 1600 ± 100 nM
[2]; Trypanosoma brucei, bloodstream form, concentration that inhibits growth by 50%, read-out: T. brucei IC50
  IC50: 17 ± 3 nM
[2]; Trypanosoma brucei, bloodstream form, concentration that inhibits growth by 90%, read-out: T. brucei IC90
  IC90: 31 ± 1 nM
[2]
  S.I. (selectivity index): 95
[7]
  CC50 at 72 h: 12500 to 25000 nM
[8]
  IC50: 0.09 µM

## CCCCCCCCCCCCCCCCOP(=O)([O-])OCC[N+](C)(C)C [MF, miltefosine, reference compound]
[5]; THP-1, 72 h
  inhibition at 10 µM: 92 ± 5%
[5]; THP-1 derived macrophages, 72 h, 95% CI in brackets
  IC50: 2.65 µM
[5]; THP-1 CC50 / L. infantum intracellular amastigote IC50
  SI (intracellular amastigotes) CC50/Li ia IC50: 11.3
[7]
  CC50 at 72 h: 30000 nM
[8]
  IC50: 11.9 µM
[8]; THP-1 CC50 / L. infantum promastigote IC50
  SI (promastigotes) CC50/Li IC50: 2.5

## O=C(Cn1ccnc1[N+](=O)[O-])NCc1ccccc1 [Bzn, benznidazole, reference compound]
T. cruzi epimastigotes [4]
  IC50: 5400 ± 200 nM
L6 cells [9]
  IC50: 510000 ± 22000 nM
[10]
  IC50: 1040 ± 320 nM
  IC90: 2540 ± 810 nM
